Experimental data: patent publication US6342537B1, “Gel for treatment of skin diseases and for disinfection of the skin” (priority 1994, dated 2002)
“And” between values parts separate entries of the source, which are not always exact repeats. Identical values can stand only once.

System: herpes simplex virus (HSV) type 1
Assay: Inactivation of herpes simplex virus in infected MRC-5 cells by alcohols (Example 25); on HSV - CPE after 44 hours with the detecting cell-layer: key: 0: no CPE; 1: a few; 2: several; 3: all cells infected with HSV
Assay type: cell-based
Conditions: for HSV - CPE after 44 hours with the detecting cell-layer: duplicate wells; for inactivation of herpes simplex virus (in words): HSV type 1 infected MRC-5 cells
Experimental: Ethanol is an accepted disinfectant for viruses with an envelope. The purpose of this study was to measure the inactivating effect of “short-chained alcohols” on virus-infected cells.
Four 96 well plates with confluent MRC-5 cell were infected with herpes simplex virus (HSV) type 1. After appearance of 50% cytopathic effect (CPE), the culture medium was removed, and rows of 12 wells were treated with 25 μl/well of the alcohols or buffer after the following scheme: The first row with undiluted, and the following with 96%, 90%, 80%, 70%, 60% and 50% alcohol, respectively—all dilutions performed in buffer (PBS). To the last row was added buffer. After 2, 4, 8, 16 and 32 min, respectively, two wells in each row were emptied and the cells overlaid with PBS. The plate was then frozen at —80° C. Afterwards the wells were seeded with a detection layer of MRC-5 cells and the plates were placed at 37° C. for 44 hours. Virus surviving the treatment with alcohol was detected by the appearance of CPE, characteristic for HSV in the detection monolayer.

[1] = alcohol undiluted, 2 min with alcohol

| Compound | HSV - CPE after 44 hours with the detecting cell-layer (50% alcohol in PBS, 2 min) | HSV - CPE after 44 hours with the detecting cell-layer (50% alcohol in PBS, 4 min) | HSV - CPE after 44 hours with the detecting cell-layer (50% alcohol in PBS, 8 min) | HSV - CPE after 44 hours with the detecting cell-layer (50% alcohol in PBS, 16 min) | HSV - CPE after 44 hours with the detecting cell-layer (50% alcohol in PBS, 32 min) | HSV - CPE after 44 hours with the detecting cell-layer (60% alcohol in PBS, 2 min) | HSV - CPE after 44 hours with the detecting cell-layer (60% alcohol in PBS, 4 min) | HSV - CPE after 44 hours with the detecting cell-layer (60% alcohol in PBS, 8 min) | HSV - CPE after 44 hours with the detecting cell-layer (60% alcohol in PBS, 16 min) | HSV - CPE after 44 hours with the detecting cell-layer (60% alcohol in PBS, 32 min) | HSV - CPE after 44 hours with the detecting cell-layer (70% alcohol in PBS, 2 min) | HSV - CPE after 44 hours with the detecting cell-layer (70% alcohol in PBS, 4 min) | HSV - CPE after 44 hours with the detecting cell-layer (70% alcohol in PBS, 8 min) | HSV - CPE after 44 hours with the detecting cell-layer (70% alcohol in PBS, 16 min) | HSV - CPE after 44 hours with the detecting cell-layer (70% alcohol in PBS, 32 min) | HSV - CPE after 44 hours with the detecting cell-layer (80% alcohol in PBS, 2 min) | HSV - CPE after 44 hours with the detecting cell-layer (80% alcohol in PBS, 4 min) | HSV - CPE after 44 hours with the detecting cell-layer (80% alcohol in PBS, 8 min) | HSV - CPE after 44 hours with the detecting cell-layer (80% alcohol in PBS, 16 min) | HSV - CPE after 44 hours with the detecting cell-layer (80% alcohol in PBS, 32 min) | also measured |
| --- | --- | --- | --- | --- | --- | --- | --- | --- | --- | --- | --- | --- | --- | --- | --- | --- | --- | --- | --- | --- | --- |
| CCO [Ethanol] | 3 | 3 | 3 | 3 | 3 | 3 | 3 | 3 | 3 | 3 | 3 | 3 | 3 | 3 | 3 | 2 | 2 | 2 | 2 | 2 | HSV - CPE after 44 hours with the detecting cell-layer (90% alcohol in PBS, 2 min): 1; HSV - CPE after 44 hours with the detecting cell-layer (90% alcohol in PBS, 4 min): 1 and 0; HSV - CPE after 44 hours with the detecting cell-layer (90% alcohol in PBS, 8 min): 0; HSV - CPE after 44 hours with the detecting cell-layer (90% alcohol in PBS, 16 min): 0; HSV - CPE after 44 hours with the detecting cell-layer (90% alcohol in PBS, 32 min): 0; HSV - CPE after 44 hours with the detecting cell-layer (96% alcohol in PBS, 2 min): 1; HSV - CPE after 44 hours with the detecting cell-layer (96% alcohol in PBS, 4 min): 1 and 0; HSV - CPE after 44 hours with the detecting cell-layer (96% alcohol in PBS, 8 min): 0; HSV - CPE after 44 hours with the detecting cell-layer (96% alcohol in PBS, 16 min): 0; HSV - CPE after 44 hours with the detecting cell-layer (96% alcohol in PBS, 32 min): 0; inactivation of herpes simplex virus (in words): able to inactivate herpes simplex virus even intracellular virus; HSV - CPE after 44 hours with the detecting cell-layer [1]: 0; HSV - CPE after 44 hours with the detecting cell-layer (alcohol undiluted, 4 min): 0; HSV - CPE after 44 hours with the detecting cell-layer (alcohol undiluted, 8 min): 0; HSV - CPE after 44 hours with the detecting cell-layer (alcohol undiluted, 16 min): 0; HSV - CPE after 44 hours with the detecting cell-layer (alcohol undiluted, 32 min): 0 |
| CC(C)O [Isopropanol] | 3 and 2 | 3 and 2 | 3 | 3 and 2 | 3 | 2 | 1 | 2 and 1 | 2 and 3 | 3 | 2 | 1 | 1 and 0 | 1 | 0 and 2 | 1 | 0 and 1 | 1 | 0 and 1 | 1 and 3 | HSV - CPE after 44 hours with the detecting cell-layer (90% alcohol in PBS, 2 min): 0 and 1; HSV - CPE after 44 hours with the detecting cell-layer (90% alcohol in PBS, 4 min): 0; HSV - CPE after 44 hours with the detecting cell-layer (90% alcohol in PBS, 8 min): 0; HSV - CPE after 44 hours with the detecting cell-layer (90% alcohol in PBS, 16 min): 0; HSV - CPE after 44 hours with the detecting cell-layer (90% alcohol in PBS, 32 min): 0; HSV - CPE after 44 hours with the detecting cell-layer (96% alcohol in PBS, 2 min): 0; HSV - CPE after 44 hours with the detecting cell-layer (96% alcohol in PBS, 4 min): 0; HSV - CPE after 44 hours with the detecting cell-layer (96% alcohol in PBS, 8 min): 0; HSV - CPE after 44 hours with the detecting cell-layer (96% alcohol in PBS, 16 min): 0; HSV - CPE after 44 hours with the detecting cell-layer (96% alcohol in PBS, 32 min): 0; inactivation of herpes simplex virus (in words): able to inactivate herpes simplex virus even intracellular virus; HSV - CPE after 44 hours with the detecting cell-layer [1]: 0; HSV - CPE after 44 hours with the detecting cell-layer (alcohol undiluted, 4 min): 0; HSV - CPE after 44 hours with the detecting cell-layer (alcohol undiluted, 8 min): 0; HSV - CPE after 44 hours with the detecting cell-layer (alcohol undiluted, 16 min): 0; HSV - CPE after 44 hours with the detecting cell-layer (alcohol undiluted, 32 min): 0 |
| CO [Methanol] | 1 and 0 | 1 | 1 and 2 | 2 | 1 | 1 | 0 and 1 | 1 | 0 and 1 | 1 | 1 | 1 | 1 | 1 | 0 and 1 | 1 | 0 | 1 | 0 and 1 | 1 and 0 | HSV - CPE after 44 hours with the detecting cell-layer (90% alcohol in PBS, 2 min): 0; HSV - CPE after 44 hours with the detecting cell-layer (90% alcohol in PBS, 4 min): 0; HSV - CPE after 44 hours with the detecting cell-layer (90% alcohol in PBS, 8 min): 0 and 1; HSV - CPE after 44 hours with the detecting cell-layer (90% alcohol in PBS, 16 min): 1; HSV - CPE after 44 hours with the detecting cell-layer (90% alcohol in PBS, 32 min): 1 and 0; HSV - CPE after 44 hours with the detecting cell-layer (96% alcohol in PBS, 2 min): 0; HSV - CPE after 44 hours with the detecting cell-layer (96% alcohol in PBS, 4 min): 0; HSV - CPE after 44 hours with the detecting cell-layer (96% alcohol in PBS, 8 min): 0; HSV - CPE after 44 hours with the detecting cell-layer (96% alcohol in PBS, 16 min): 0 and 1; HSV - CPE after 44 hours with the detecting cell-layer (96% alcohol in PBS, 32 min): 1 and 0; inactivation of herpes simplex virus (in words): able to inactivate herpes simplex virus even intracellular virus; HSV - CPE after 44 hours with the detecting cell-layer [1]: 0; HSV - CPE after 44 hours with the detecting cell-layer (alcohol undiluted, 4 min): 0; HSV - CPE after 44 hours with the detecting cell-layer (alcohol undiluted, 8 min): 0; HSV - CPE after 44 hours with the detecting cell-layer (alcohol undiluted, 16 min): 0; HSV - CPE after 44 hours with the detecting cell-layer (alcohol undiluted, 32 min): 0 |
| CCCO [Propanol] | 2 | 3 | 3 and 2 | 3 and 2 | 1 | 1 and 2 | 2 and 1 | 1 and 0 | 1 and 0 | 0 | 1 and 2 | 1 and 0 | 1 and 0 | 0 | 0 | 0 | 0 | 0 and 1 | 0 | 0 | HSV - CPE after 44 hours with the detecting cell-layer (90% alcohol in PBS, 2 min): 0; HSV - CPE after 44 hours with the detecting cell-layer (90% alcohol in PBS, 4 min): 0; HSV - CPE after 44 hours with the detecting cell-layer (90% alcohol in PBS, 8 min): 0; HSV - CPE after 44 hours with the detecting cell-layer (90% alcohol in PBS, 16 min): 0; HSV - CPE after 44 hours with the detecting cell-layer (90% alcohol in PBS, 32 min): 0; HSV - CPE after 44 hours with the detecting cell-layer (96% alcohol in PBS, 2 min): 0; HSV - CPE after 44 hours with the detecting cell-layer (96% alcohol in PBS, 4 min): 0; HSV - CPE after 44 hours with the detecting cell-layer (96% alcohol in PBS, 8 min): 0; HSV - CPE after 44 hours with the detecting cell-layer (96% alcohol in PBS, 16 min): 0; HSV - CPE after 44 hours with the detecting cell-layer (96% alcohol in PBS, 32 min): 0; inactivation of herpes simplex virus (in words): able to inactivate herpes simplex virus even intracellular virus; HSV - CPE after 44 hours with the detecting cell-layer [1]: 0; HSV - CPE after 44 hours with the detecting cell-layer (alcohol undiluted, 4 min): 0; HSV - CPE after 44 hours with the detecting cell-layer (alcohol undiluted, 8 min): 0; HSV - CPE after 44 hours with the detecting cell-layer (alcohol undiluted, 16 min): 0; HSV - CPE after 44 hours with the detecting cell-layer (alcohol undiluted, 32 min): 0 |
